Reference: the supplement of paper PMC11451515

Test system: SEM cells
Assay: cell viability relative to DMSO control; higher = less cytotoxic
Settings: 48 h
In short: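 NOMO1, SEM and P12-Ichikawa leukemia cells spent at least four passages adapting to each medium before use. They were seeded at 500 cells/well (NOMO1, SEM) or 1000 cells/well (P12-Ichikawa) in 5 μl in 1536-well plates and pin-dosed with library compounds in DMSO at 11 threefold steps from 47 μM down to 0.79 nM. After 48 h at 37°C, CellTiter-Glo One luminescence was read. Viability is reported as a percentage of the DMSO wells on each plate, with cell-free wells as background.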

[1] = HPLM + 10% dialyzed FBS, 0.000781 µM
[2] = HPLM + 10% dialyzed FBS, 0.00234 µM
[3] = HPLM + 10% dialyzed FBS, 0.00702 µM
[4] = HPLM + 10% dialyzed FBS, 0.0211 µM
[5] = HPLM + 10% dialyzed FBS, 0.0632 µM
[6] = HPLM + 10% dialyzed FBS, 0.19 µM
[7] = HPLM + 10% dialyzed FBS, 0.569 µM
[8] = HPLM + 10% dialyzed FBS, 1.71 µM
[9] = HPLM + 10% dialyzed FBS, 5.12 µM
[10] = HPLM + 10% dialyzed FBS, 15.4 µM
[11] = HPLM + 10% dialyzed FBS, 46.1 µM
[12] = RPMI 5 mM glucose + 10% FBS, 0.000781 µM
[13] = RPMI 5 mM glucose + 10% FBS, 0.00234 µM
[14] = RPMI 5 mM glucose + 10% FBS, 0.00702 µM
[15] = RPMI 5 mM glucose + 10% FBS, 0.0211 µM
[16] = RPMI 5 mM glucose + 10% FBS, 0.0632 µM
[17] = RPMI 5 mM glucose + 10% FBS, 0.19 µM
[18] = RPMI 5 mM glucose + 10% FBS, 0.569 µM
[19] = RPMI 5 mM glucose + 10% FBS, 1.71 µM
[20] = RPMI 5 mM glucose + 10% FBS, 5.12 µM
[21] = RPMI 5 mM glucose + 10% FBS, 15.4 µM
[22] = RPMI 5 mM glucose + 10% FBS, 46.1 µM
[23] = RPMI 5 mM glucose + 10% dialyzed FBS, 0.000781 µM
[24] = RPMI 5 mM glucose + 10% dialyzed FBS, 0.00234 µM
[25] = RPMI 5 mM glucose + 10% dialyzed FBS, 0.00702 µM
[26] = RPMI 5 mM glucose + 10% dialyzed FBS, 0.0211 µM
[27] = RPMI 5 mM glucose + 10% dialyzed FBS, 0.0632 µM
[28] = RPMI 5 mM glucose + 10% dialyzed FBS, 0.19 µM
[29] = RPMI 5 mM glucose + 10% dialyzed FBS, 0.569 µM
[30] = RPMI 5 mM glucose + 10% dialyzed FBS, 1.71 µM
[31] = RPMI 5 mM glucose + 10% dialyzed FBS, 5.12 µM
[32] = RPMI 5 mM glucose + 10% dialyzed FBS, 15.4 µM
[33] = RPMI 5 mM glucose + 10% dialyzed FBS, 46.1 µM

Row | Compound | cell viability [1] [%] | cell viability [2] [%] | cell viability [3] [%] | cell viability [4] [%] | cell viability [5] [%] | cell viability [6] [%] | cell viability [7] [%] | cell viability [8] [%] | cell viability [9] [%] | cell viability [10] [%] | cell viability [11] [%] | cell viability [12] [%] | cell viability [13] [%] | cell viability [14] [%] | cell viability [15] [%] | cell viability [16] [%] | cell viability [17] [%] | cell viability [18] [%] | cell viability [19] [%] | cell viability [20] [%] | cell viability [21] [%] | cell viability [22] [%] | cell viability [23] [%] | cell viability [24] [%] | cell viability [25] [%] | cell viability [26] [%] | cell viability [27] [%] | cell viability [28] [%] | cell viability [29] [%] | cell viability [30] [%] | cell viability [31] [%] | cell viability [32] [%] | cell viability [33] [%]
1 | O=C(Nc1cc2cc[nH]c2cn1)c1ccccc1 | 87.7 | 95.6 | 90.4 | 104 | 85.6 | 102 | 109 | 104 | 18.5 | 4.59 | 2.37 | 75.6 | 89.4 | 92.4 | 90.8 | 92.8 | 106 | 104 | 90 | 4.38 | 2.43 | 1 | 85.4 | 95.1 | 98.7 | 98.8 | 96.8 | 102 | 112 | 117 | 6.2 | 5.18 | 2.59
2 | COc1ccc(C2CNC(=O)C2)cc1OC1CCCC1 (centres undefined) | 80.8 | 93.4 | 91.4 | 89.7 | 106 | 97.7 | 107 | 102 | 108 | 97 | 101 | 82.9 | 88.6 | 89.9 | 81.7 | 100 | 95.3 | 102 | 110 | 97.3 | 107 | 90.2 | 85.9 | 89.7 | 101 | 89.8 | 95 | 99.3 | 94.6 | 99.9 | 101 | 102 | 103
3 | C[C@@H]\1CC(=O)N\N=C1C2=CC=C(NN=C(C#N)C#N)C=C2 | 88.9 | 86.8 | 101 | 87.4 | 98.4 | 96.5 | 55.4 | 92.3 | 106 | 62.8 | 4.93 | 68.2 | 92.4 | 107 | 92.6 | 88.4 | 102 | 39.3 | 90.9 | 95.2 | 35.3 | 5 | 73.5 | 88.4 | 91.4 | 93.1 | 95.2 | 92.5 | 72.8 | 100 | 107 | 53.2 | 6.27
